Laboratory results: patent publication US9345682B2, “Inhibition of STAT3 signal transduction for human cancer therapy” (University of South Florida, priority 1999, dated 2016)
Values belong to the compound of their own block, whether it stands above or below them.

Legend:
STAT3 [1] = experiment: STAT3-specific luciferase reporter (pLucTKS3) induced by v-Src in NIH 3T3 fibroblasts; format: cell-based, mouse; details: for constitutive induction of the STAT3-dependent luciferase reporter: NIH 3T3/v-Src/TKS3 cells stably expressing reporter, 6 hours; for STAT3-specific luciferase reporter induction by v-Src: transiently transfected NIH 3T3 cells, inhibitor for 6 h
Method: NIH 3T3, NIH 3T3/v-Src and NIH 3T3/v-Ras fibroblasts are grown in Dulbecco's modified Eagle's medium (DMEM) containing 5% iron-supplemented bovine calf serum (BCS). Transient transfections are carried out by the standard calcium phosphate method as previously described (Turkson, et al., 1998, Mol. Cell. Biol. 18:2545-2552). NIH 3T3 fibroblasts are seeded at 5×10^5 cells/100-mm plate in DMEM plus 5% BCS at 18 to 24 hours prior to transfection. Total DNA for transfections is typically 20 μg per plate, including 4 μg of luciferase reporter construct (pLucTKS3), 0.2 μg of β-galactosidase (β-Gal) internal control vector, and the amounts of expression vector indicated in figure legends. Transfection is terminated 15 hours later by aspirating the medium, washing the cells with phosphate-buffered saline (PBS), and adding fresh DMEM. For generation of NIH 3T3/v-Src/TKS3 cell lines stably expressing the STAT3 reporter, NIH 3T3/v-Src cells are transfected using Fugene 6 (Boehringer Mannheim) according to the supplier's protocol. The transfection mixture contains 5.5 μg total DNA per 10 cm plate, including […] of the STAT3 reporter, pLucTKS3, and 0.5 μg of pcDNA3 that carries the neomycin resistance gene. Individual G418-resistant clones are picked and characterized with regard to STAT3-dependent luciferase activities.
(§1) In the case of stable NIH 3T3/v-Src/TKS3 clones, cells are treated with inhibitors or DMSO for 6 hours prior to preparing cytosolic extracts. For transient expression assays, cytosolic extracts are prepared from cells at 48 hours posttransfection as previously described (Turkson, et al., 1998, Mol. Cell. Biol. 18:2545-2552). Briefly, after two washes with PBS and equilibration for 5 min with 0.5 ml of PBS-0.5 mM EDTA, cells are scraped off the dishes and the cell pellet is obtained by centrifugation (4,500×g, 2 min, 4° C.). Cells are resuspended in 0.4 ml of low-salt HEPES buffer (10 mM HEPES [pH 7.8], 10 mM KCl, 0.1 mM EGTA, 0.1 mM EDTA, 1 mM phenylmethylsulfonyl fluoride, and 1 mM dithiothreitol) for 15 min, lysed by the addition of 20 μl of 10% Nonidet P-40 (NP-40), and centrifuged (10,000×g, 30 s, 4° C.) to obtain the cytosolic supernatant, which is used for luciferase assays (Promega) measured with a luminometer and for β-Gal activity detection by colorimetric assay at A570. As an internal control for transient transfection efficiency, results are normalized to β-Gal activity. For EMSA, nuclear extracts are prepared from transiently-transfected NIH 3T3 cells and volumes containing equal amounts of total protein are incubated with ^32P-labeled M67SIE oligonucleotide probe, as previously reported (Garcia, et al., 1997, Cell Growth Differ. 8:1267-1276, Yu, et al., 1995, Science 269:81-83). […]

STAT3 [2] = experiment: Western blot of STAT3 serine 727 phosphorylation in Src-transformed NIH 3T3 fibroblasts; format: cell-based, mouse; details: 6 hours
Method: (§2) Whole-cell lysates are prepared in boiling sodium dodecyl sulfate (SDS) sample-loading buffer in order to extract total proteins from the cytoplasm and nucleus as well as preserve the in vivo phosphorylation […]. Equivalent amounts of total cellular protein are electrophoresed on an SDS-10% polyacrylamide gel and transferred to nitrocellulose membranes. Probing of nitrocellulose membranes with primary antibodies and detection of horseradish peroxidase-conjugated secondary antibodies by enhanced chemiluminescence (Amersham) are performed as previously described (Garcia, et al., 1997, Cell Growth Differ. 8:1267-1276, Turkson, et al., 1998, Mol. Cell. Biol. 18:2545-2552, Yu, et al., 1995, Science 269:81-83). Probes used are rabbit polyclonal antibodies against […] amino acid residues (626-640) of STAT3 (Santa Cruz Biotechnology), phosphoserine-727 of STAT3 (25), active (phospho-) JNK, p38^mapk or ERKs (New England Biolabs), or total JNK, p38^mapk or ERKs (Santa Cruz Biotechnology).

STAT3 [3] = experiment: EMSA (M67SIE probe) of STAT3 DNA-binding activity in NIH 3T3 cells expressing v-Src; format: cell-based, mouse; details: v-Src-expressing NIH 3T3 cells, 6 hours
Method: as §1, with “activity.” for “activity. For EMSA, nuclear extracts are prepared from transiently-transfected NIH 3T3 cells and volumes containing equal amounts of total protein are incubated with ^32P-labeled M67SIE oligonucleotide probe, as previously reported (Garcia, et al., 1997, Cell Growth Differ. 8:1267-1276, Yu, et al., 1995, Science 269:81-83).”

p38, JNK1/2, ERK1/2 = experiment: Western blot of phosphorylated (activated) MAPKs in Src-transformed fibroblasts; format: cell-based, mouse
Method: as §2

[4] = test system: NIH 3T3/v-Src fibroblasts; experiment: Soft-agar colony formation of NIH 3T3/v-Src fibroblasts; format: cell-based, mouse; details: treated once weekly
Method: (§3) Colony formation assays are carried out in 6-well dishes. Each well contains 1.5 ml of 1% agarose in DMEM as the bottom layer. The top layer in each well consists of 1.5 ml of 0.5% agarose in DMEM containing 4,000 or 6,000 of NIH 3T3/v-Src or NIH 3T3/v-Ras fibroblasts, respectively. Treatment with inhibitors is initiated one day after seeding cells by adding 75-100 μl of medium with or without inhibitors and repeated once a week until formation of large colonies is evident. For quantitation, colonies are stained by adding 20 μl of 1 mg/ml iodonitrotetrazoliurn violet to each well and incubating at 37° C. overnight. Stained colonies are counted the next day.

[5] = test system: NIH 3T3/v-Ras fibroblasts; experiment: Soft-agar colony formation of NIH 3T3/v-Ras fibroblasts; format: cell-based, mouse; details: treated once weekly
Method: as §3

STAT3 [6] = experiment: EMSA of constitutive STAT3 DNA-binding activity in MDA-MB-468 breast carcinoma cells; format: cell-based, human; details: MDA-MB-468 cells; dose-dependent
Method: (§4) FIG. 6: Src and JAK Inhibitors Block Growth and STAT3 Activation in Breast Carcinoma Cells. MDA-MD-468 cells are treated with inhibitors of EGF receptor (PD158780), Src (PD180970), or JAKs (AG490), and effects on cell growth (Panel A) and STAT3 DNA-binding activity (Panel B) are determined.
STAT DNA-binding activity in human breast cancer cell lines is examined by electrophoretic mobility shift assays (EMSA) (Garcia et al., 1997, Cell Growth Diff. 8:1267-1276). In these experiments, EMSAs are performed using the ^32P-labeled sis-inducible element (SIE) as a probe to detect STAT DNA-binding activity in nuclear extracts of cells. This synthetic DNA oligonucleotide probe is a high-affinity mutant of the c-fos SIE, called hSIE, that binds both STAT1 and STAT3 (Yu, et al., 1995, Science 269:81-83). […] This activation is constitutive and occurs in the absence of exogenous EGF stimulation. By contrast, STAT3 activation is not detected in any of the three cell lines derived from normal breast tissue.
(§5) The involvement of these, and other, tyrosine kinases in STAT3 activation is tested using specific inhibitors of JAK family kinases, and the EGF receptor and Src family kinases.

MDA-MB-468 cells = experiment: Cell growth of MDA-MB-468 breast carcinoma cells; format: cell-based, human
Method: as §4, §5

SH2 Domain of STAT3 = target: T1, SH2 Domain of STAT3 (Homo sapiens, UniProt P40763); experiment: Phage display panning, 7-mer peptide library, on the SH2 domain of STAT3; format: binding
T1 construct: the SH2 domain of STAT3 is isolated as a target for screening 7-mer peptide phage display libraries; GST; made in house; host or cells: bacteria (E. coli)
T1 sequence (P40763 580-670 limits assumed): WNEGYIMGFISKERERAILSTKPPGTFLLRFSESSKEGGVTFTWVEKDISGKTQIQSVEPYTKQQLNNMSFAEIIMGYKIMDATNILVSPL
Excerpt: Phage display peptide libraries are used because of two powerful features. First, phage libraries generate an enormous diversity of peptides that can be subjected to affinity selection by panning. […] These combinatorial libraries are based on random short peptide sequences fused to a coat protein of bacteriophage, herein pIII of the filamentous coliphage MI3. Panning of the peptide library using an immobilized target, herein STAT3 fusion proteins bound onto beads, is used to select for peptide sequences that bind to STAT3. […] Peptide sequences that occur at elevated frequencies are good candidates for ST4T3-specific binding peptides. […] These cyclic peptides have the advantage of reducing entropic freedom, thereby potentially increasing binding specificity and affinity relative to linear peptides. Another variation on this approach is to combine “affinity maturation” with the phage display peptide library [Scott & Smith, 1990, Science, 249:386-390].
For panning phage with the STAT3 fusion protein, 50 ul of glutathione-Sepharose beads bound to purified GST-Stat3 fusion protein are washed with phosphate buffered saline (PBS). The beads are then incubated with 10 ul of phage suspension (1.4×10^11 virions) in 200 ul final volume of PBS for 30 min at room temperature with occasional mixing. The beads are gently pelleted in a microcentrifuge, and washed 10 times with 1 ml of PBS to remove unbound phage. Background of non-specifically bound phage is reduced by a variety of methods, including pre-blocking the beads with bovine serum albumin, pre-clearing the phage library with GST-glutathione-Sepharose beads, and washing the beads with increasing salt concentrations. Bound phage virions are eluted from the beads by incubation with a molar excess of glutathione for 30 min at room temperature. A small aliquot of the phage eluate is titered and the rest is amplified on the E. coli ER2537 host strain. Following amplification, the phage are purified by polyethylene glycol (PEG) precipitation and then the titer is determined again. […]

- constitutive induction of the STAT3-dependent luciferase reporter (STAT3 [1]): partially
- STAT3-specific luciferase reporter induction by v-Src (STAT3 [1]): significantly suppresses
Compound: COc1cccc(-c2cc(=O)c3ccccc3o2)c1N [PD98059]
- STAT3 serine phosphorylation (phosphoserine-727) (STAT3 [2]): blocks
- STAT3 DNA-binding activity induced by v-Src (STAT3 [3]): no effect
- basal ERKs activity (p38, JNK1/2, ERK1/2; Src-transformed fibroblasts): complete block
- colony formation of Src-transformed cells in soft agar [4]: lack of significant effect
- colony formation of Ras-transformed fibroblasts in soft agar [5]: lack of significant effect

Compound: CNc1cc2c(Nc3cccc(Br)c3)ncnc2cn1 [PD158780]
- constitutive STAT3 activation (STAT3 DNA-binding activity) (STAT3 [6]): does not block
- cell growth (MDA-MB-468 cells): not by the EGF receptor inhibitor

Compound: Cc1cc(Nc2ncc3cc(-c4c(Cl)cccc4Cl)c(=O)n(C)c3n2)ccc1F [PD180970]
- constitutive STAT3 activation (STAT3 DNA-binding activity) (STAT3 [6]): effectively blocked
- cell growth (MDA-MB-468 cells): inhibition of cell growth

- constitutive induction of the STAT3-dependent luciferase reporter (STAT3 [1]): completely
- STAT3-specific luciferase reporter induction by v-Src (STAT3 [1]): significant inhibition
Compound: Oc1ccc(-c2nc(-c3ccncc3)c(-c3ccc(F)cc3)[nH]2)cc1 [SB202190]
- STAT3 serine phosphorylation (phosphoserine-727) (STAT3 [2]): blocks
- STAT3 DNA-binding activity induced by v-Src (STAT3 [3]): no effect
- phosphorylation of MAPK members, including p38 (p38, JNK1/2, ERK1/2; Src-transformed cells): does not significantly alter
- colony formation of Src-transformed cells in soft agar [4]: completely blocks
- colony formation of Ras-transformed fibroblasts in soft agar [5]: no significant effects

Compound: ASTLPKA (listed as Homo sapiens)
- Frequency (out of 100 clones) (SH2 Domain of STAT3): 7%

Compound: HAIYPRN (listed as Homo sapiens)
- Frequency (out of 100 clones) (SH2 Domain of STAT3): 16%

Compound: IQSPHFF (listed as Homo sapiens)
- Frequency (out of 100 clones) (SH2 Domain of STAT3): 6%
